In PubChem BioAssay AID2060511 (Molecular Pharmacology Branch, DTP, NCI, 2025):
pIC50: −log10 of the molar value.

Test system: 422866-222-R5-J1-PDC spheroids with HUVEC/MSC, viability
Test: Anticancer human tumor 422866-222-R5-J1-PDC patient-derived pancreatic adenocarcinoma cell line growth inhibition [GQUAD]
Conditions: for pIC50: curve of first compound; for viability, T/C: stronger effect = lower value
Source text: DNA G-quadruplex Stabilizer Agents in Combinations in Complex Spheroids
A high-throughput screen of multi-cell type tumor spheroids was designed to identify active combinations of DNA G-quadruplex stabilizer agents and targeted small molecules. Complex spheroids include a stromal component modeled by human endothelial cells (HUVEC) and fibroblasts modeled by human mesenchymal stem cells (MSCs). The concentration ranges selected for each drug and investigational agent were based upon clinically achievable concentrations if the clinical Cmax of the agent was known.
Compounds. The drugs and investigational agents: pidnarulex (CX-5461; NSC782164), APTO-253 (NSC789042), BRACO-19 (NSC847499), peposertib (NSC802822), ceralasertib (NSC780249), elimusertib (NSC800525), camonsertib (NSC841442), AZD-1390 (NSC803789), olaparib (NSC753686), talazoparib (NSC767125), ART-558 (NSC835418), sotorasib (NSC818433), MRTX-1133 (NSC836407), SN-38 (NSC673596), topotecan (NSC609699), etoposide (NSC141540), doxorubicin (NSC123127), gemcitabine (NSC613327), 5-fluorouracil (NSC19893), paclitaxel (NSC125973), vemurafenib (NSC761431), panobinostat (NSC761190), R-306465 (JNJ-16241199; NSC773264), adavosertib (NSC754352), TP-3654 (NSC805149), carboplatin (NSC241240), KSQ-4279 (NSC840948), and staurosporine (NSC755774) were obtained from the National Cancer Institute (NCI) Developmental Therapeutics Program Chemical Repository (34). The FDA-approved anticancer drug set is available from the NCI Developmental Therapeutics Program. […] The stock solutions were prepared in dimethyl sulfoxide (DMSO, Sigma-Aldrich, St. Louis, MO, cat. D2650) at 800-fold the tested concentration and stored at -70 degrees C prior to their use. All drugs and investigational agents were tested over a range starting from a high concentration at or near the clinical Cmax and decreasing in half-log increments. If the clinical Cmax for an agent had not been determined, the highest concentration tested was 10 microM.
2.3 Cell Culture. All cells were maintained in an incubator at 37 degrees C and 5% CO2 with 95% humidity. The PDC lines were cultured according to standard operating procedures established by the NCI PDMR. All PDCs were thawed and cultured in Matrigel-coated flasks prepared with a working solution of 1X Ham's F-12 nutrient mix, without supplementation (Invitrogen, cat. 11765054), 100 U/mL penicillin-streptomycin (Invitrogen, cat. 15140122), and 2.5% Matrigel (Corning Inc., cat. 354248) for the first three passages. The 857933-349-R-J2-PDC line was cultured in 6C/Colon 1B media, which includes advanced DMEM/F-12 (Thermo Fisher Scientific, cat. 12634028), 10 mM HEPES (Thermo Fisher Scientific, cat. 15630080), 1X GlutaMAX supplement (Thermo Fisher Scientific, cat. 35050061), 0.1 mg/mL primocin (InvivoGen, cat. ant-pm-2), 10% defined fetal bovine serum, heat inactivated (HyClone Laboratories Inc., cat. SH30070.03HI), 50% L-WRN conditioned media (ATCC, cat. CRL-3276), 1.25 mM N-Acetyl-L-cysteine (Sigma-Aldrich, cat. A9165), 10 mM nicotinamide (Sigma-Aldrich, cat. N0636), 1X B-27 supplement (Thermo Fisher Scientific, cat. 17504044), 1X N-2 supplement (Thermo Fisher Scientific, cat. 17502048), 10 microM Y-27632 dihydrochloride (Tocris Bioscience, cat. 1254), and 50 ng/mL human EGF recombinant protein (Thermo Fisher Scientific, cat. PHG0311). The 485176-168-R4-J1-PDC line was cultured in Panc media, which includes all 6C/Colon 1B media components plus 100 ng/mL human FGF-10 (Thermo Fisher Scientific, cat. 100-26), 500 nM SB-431542 (Selleckchem, cat. S1067), and gastrin (Tocris, cat. 3006).
[…]

[1] = second compound 0.0316 µM, first compound 0.0316 µM
[2] = second compound 0.0316 µM, first compound 0.1 µM
[3] = second compound 0.0316 µM, first compound 0.316 µM
[4] = second compound 0.0316 µM, first compound 1 µM
[5] = second compound 0.0316 µM, first compound 3.16 µM
[6] = second compound 0.0316 µM, first compound 10 µM
[7] = second compound 0.1 µM, first compound 0.0316 µM
[8] = second compound 0.1 µM, first compound 0.1 µM
[9] = second compound 0.1 µM, first compound 0.316 µM
[10] = second compound 0.1 µM, first compound 1 µM
[11] = second compound 0.1 µM, first compound 3.16 µM
[12] = second compound 0.1 µM, first compound 10 µM
[13] = second compound 0.316 µM, first compound 0.0316 µM
[14] = second compound 0.316 µM, first compound 0.1 µM
[15] = second compound 0.316 µM, first compound 0.316 µM
[16] = second compound 0.316 µM, first compound 1 µM
[17] = second compound 0.316 µM, first compound 3.16 µM
[18] = second compound 0.316 µM, first compound 10 µM
[19] = second compound 1 µM, first compound 0.0316 µM
[20] = second compound 1 µM, first compound 0.1 µM
[21] = second compound 1 µM, first compound 0.316 µM
[22] = second compound 1 µM, first compound 1 µM
[23] = second compound 1 µM, first compound 3.16 µM
[24] = second compound 1 µM, first compound 10 µM
[25] = second compound 3.16 µM, first compound 0.0316 µM
[26] = second compound 3.16 µM, first compound 0.1 µM
[27] = second compound 3.16 µM, first compound 0.316 µM
[28] = second compound 3.16 µM, first compound 1 µM
[29] = second compound 3.16 µM, first compound 3.16 µM
[30] = second compound 3.16 µM, first compound 10 µM
[31] = second compound 10 µM, first compound 0.0316 µM
[32] = second compound 10 µM, first compound 0.1 µM
[33] = second compound 10 µM, first compound 0.316 µM
[34] = second compound 10 µM, first compound 1 µM
[35] = second compound 10 µM, first compound 3.16 µM
[36] = second compound 10 µM, first compound 10 µM
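Further: spheroids exposed to compounds for seven days before reading.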
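Wherever viability, T/C is given: percent viability relative to DMSO vehicle control taken as 100%.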

## CC1COCCN1c1cc(C2(S(C)(=N)=O)CC2)nc(-c2ccnc3[nH]ccc23)n1 (centres undefined) + CN(C)c1ccc(Nc2c3ccc(NC(=O)CCN4CCCC4)cc3nc3cc(NC(=O)CCN4CCCC4)ccc23)cc1
Second compound 0.0316 µM
  pIC50: 5.45
Second compound 0.1 µM
  pIC50: 5.59
Second compound 0.316 µM
  pIC50: 5.11
Second compound 1 µM
  pIC50: 5.42
Second compound 3.16 µM
  pIC50: 5.45
Second compound 10 µM
  pIC50: 5.22
[1]
  viability, T/C: 97.6%
[2]
  viability, T/C: 99.8%
[3]
  viability, T/C: 97.3%
[4]
  viability, T/C: 88.5%
[5]
  viability, T/C: 51%
[6]
  viability, T/C: 41.1%
[7]
  viability, T/C: 102%
[8]
  viability, T/C: 98.3%
[9]
  viability, T/C: 102%
[10]
  viability, T/C: 78.9%
[11]
  viability, T/C: 44.6%
[12]
  viability, T/C: 37.9%
[13]
  viability, T/C: 92.2%
[14]
  viability, T/C: 86.2%
[15]
  viability, T/C: 88.4%
[16]
  viability, T/C: 81%
[17]
  viability, T/C: 60.3%
[18]
  viability, T/C: 47.1%
[19]
  viability, T/C: 73.7%
[20]
  viability, T/C: 76.6%
[21]
  viability, T/C: 100%
[22]
  viability, T/C: 72.7%
[23]
  viability, T/C: 54.2%
[24]
  viability, T/C: 31.9%
[25]
  viability, T/C: 84.5%
[26]
  viability, T/C: 76.5%
[27]
  viability, T/C: 86%
[28]
  viability, T/C: 72%
[29]
  viability, T/C: 51.4%
[30]
  viability, T/C: 43.5%
[31]
  viability, T/C: 79.5%
[32]
  viability, T/C: 77%
[33]
  viability, T/C: 93%
[34]
  viability, T/C: 73.6%
[35]
  viability, T/C: 61.9%
[36]
  viability, T/C: 41.2%

## O=C(c1cc(Cc2n[nH]c(=O)c3ccccc23)ccc1F)N1CCN(C(=O)C2CC2)CC1 + CN(C)c1ccc(Nc2c3ccc(NC(=O)CCN4CCCC4)cc3nc3cc(NC(=O)CCN4CCCC4)ccc23)cc1
Second compound 0.0316 µM
  pIC50: < 5.00
Second compound 0.1 µM
  pIC50: < 5.00
Second compound 0.316 µM
  pIC50: < 5.00
Second compound 1 µM
  pIC50: < 5.00
Second compound 3.16 µM
  pIC50: < 5.00
Second compound 10 µM
  pIC50: < 5.00
[1]
  viability, T/C: 108%
[2]
  viability, T/C: 95.8%
[3]
  viability, T/C: 96.3%
[4]
  viability, T/C: 99.7%
[5]
  viability, T/C: 75.7%
[6]
  viability, T/C: 70.1%
[7]
  viability, T/C: 90.3%
[8]
  viability, T/C: 95.3%
[9]
  viability, T/C: 84.9%
[10]
  viability, T/C: 83%
[11]
  viability, T/C: 93.2%
[12]
  viability, T/C: 67.5%
[13]
  viability, T/C: 86.4%
[14]
  viability, T/C: 107%
[15]
  viability, T/C: 79.7%
[16]
  viability, T/C: 83.3%
[17]
  viability, T/C: 79.8%
[18]
  viability, T/C: 70.4%
[19]
  viability, T/C: 80%
[20]
  viability, T/C: 79.3%
[21]
  viability, T/C: 78.3%
[22]
  viability, T/C: 77.4%
[23]
  viability, T/C: 74.5%
[24]
  viability, T/C: 67.5%
[25]
  viability, T/C: 87%
[26]
  viability, T/C: 92.3%
[27]
  viability, T/C: 86.5%
[28]
  viability, T/C: 85.7%
[29]
  viability, T/C: 85%
[30]
  viability, T/C: 80.6%
[31]
  viability, T/C: 81.8%
[32]
  viability, T/C: 83.6%
[33]
  viability, T/C: 87.4%
[34]
  viability, T/C: 79.5%
[35]
  viability, T/C: 83.6%
[36]
  viability, T/C: 79.9%
